Assay results published in patent publication US8466104B2, “Therapeutically active alpha MSH analogues” (AbbVie Inc., priority 2005, dated 2013).
Values joined by “and” are separate entries in the source; they are usually repeats but may differ in a detail not shown here. Equal entries are not always repeated. “Also recorded” adds a separate entry of the source. Where two headings read alike, the source gives them in different places.

What was measured:
[1] = test system: myocardial infarction induced by LAD occlusion in rats; assay: Inhibition of myocardial infarction size induced by 60 minutes occlusion of the left anterior descending coronary artery in rats (experimental setup 5); format: in vivo, rat; details: for dose at which the maximal inhibitory effect on infarction size is achieved: 200 and 1000 μg/kg tested; for effect on myocardial infarction size (in contrast to / compared to a-MSH) / myocardial infarction size, necrotic area as % of area of risk: 3 hours after LAD-reperfusion
Description: Inhibition of Myocardial Infarction Size, Induced by 60 Minutes Occlusion of the Left Anterior Descending Coronary Artery in Rats.
Barrier-bred and specific pathogen-free female Wistar rats (250 g) are obtained from Charles River, Hannover, Germany. The animals are housed in a temperature (22-24° C.) and moisture (40-70%) controlled room with a 12-hour light-dark cycle (light on from 6:00 A.M. to 6:00 P.M.). All animals are given free access to tap water and a pelleted rat diet containing approximately 140 mmol/kg of sodium, 275 mmol/kg potassium and 23% protein (Altromin catalogue no. 1310, Altromin International, Lage, Germany). […] One week later the Rats are anaesthetized in an inhalation chamber with 4% isoflurane in O2. After insertion of an endotracheal tube the animal is artificially ventilated with 1.0% isoflurane in O2 using af Hugo Basile Rodent ventilator. Tidal volume is 8-10 ml/kg b.w. and respiratory rate 75 […], which maintains arterial pH between 7.35 and 7.45. During surgery the animal is placed on a heated table that maintains rectal temperature at 37-38° C. Standard ECG (second lead) is measured using a Hugo Sachs ECG Coupler and collected on line at 4,000 Hz in PowerLab. After parasternal thoracotomy and opening of the pericardium the left anterior descending coronary artery (LAD) is localized visually. An atraumatic 6-0 silk suture with an occluder that allows reopening of the ligature is placed around the LAD between the pulmonary trunk and the lower right end of the left auricle. After 10 minutes the left anterior descending coronary artery (LAD) is occluded. Successful occluding is confirmed by alterations in ECG (ST-segment elevation and increase in R-wave amplitude) and by fall in MAP. Reperfusion is made after 60 minutes by opening the occluder. Control rats are sham-operated.
The rats are subjected to one of the following i.v treatments: • Vehicle: 0.5 ml 150 mM NaCl. • a-MSH: 200 μg or 1000 μg a-melanocyte stimulating hormone/kg b.w. in 0.5 ml 150 mM NaCl.
Test compound 200 μg or 1000 μg test compound/kg b.w. in 0.5 ml 150 mM NaCl.
Treatment is given 5 minutes prior to reperfusion.
The rats are kept anaesthetized after the ischemia/reperfusion and re-occluding of the LAD is performed after three hours reperfusion. During this period ECG and MAP are measured continuously. Then Evans Blue dye (1 ml; 2% w/v) is administered i.v. to determine the size of the ischemic area. The heart is removed and cut into horizontal slices to determine the size of the ischemic area and to separate the ischemic myocardium from the non-ischemic myocardium. The ischemic area is isolated and incubated in a 0.5% triphenyltetrazolium chloride solution for 10 minutes at 37° C. The size of the necrotic tissue is then measured by used of a computerized image program. An additional setup of animals are treated with buprenorphine post-surgical and returned to there cages for measurement of left ventricular end diastolic pressure (LVEDP) two weeks later in order to evaluate the effect of the pharmacological treatment on the development of congestive heart failure. LVEDP is measured using a 2F microtip catheters inserted into the left ventricle via the right carotid artery. Isoflurane concentration is adjusted to stabilize mean arterial pressure (MAP) at 85-90 mmHg.
Data are presented as mean±S.E. Within group comparisons are analysed with Student's paired t test. Between group comparisons are performed by one way analysis of variance followed by Fishers Least Significant Difference test. Differences are considered significant at the 0.05 level.

[2] = test system: LPS induced TNF-α in plasma; assay: Inhibition of LPS induced TNFa production in rats in vivo (experimental setup 2); design: species or system rat; details: for inhibitory effect on plasma TNF-a compared to native a-MSH / TNF-a concentration in plasma, % of the maximal response (LPS-Vehicle) / dose at which the maximal inhibitory effect on TNF-a is achieved: iv LPS infusion; for TNF-a concentration in plasma, % of the maximal response (LPS-Vehicle): 200 μg/kg body weight iv, 120 minutes after initiation of LPS infusion; for dose at which the maximal inhibitory effect on TNF-a is achieved: doses 50, 200, 1000 μg/kg tested
Description: Inhibition of LPS Induced TNFa Production in Rats In Vivo
Experimental animals. Female Wistar rats (220-240 g) are obtained from the Charles River, Sulzfeld, Germany, and housed in a temperature- (22-24° C.) and moisture-controlled (40-70%) room with a 12 h light-dark cycle (light on from 6:00 A.M. to 6:00 P.M.). The rats are maintained on a standard rodent diet with 140 mmol/kg of sodium, 275 mmol/kg potassium and 23% protein (Altromin International, Lage, Germany) and have free access to water.
Animal preparation. […] After instrumentation, the animals are housed individually for 7-10 days until the day of the experiment.
Experimental protocol. Prior to the experiments all rats are adapted to the restraining cage used for the experiments by training them for two periods of two hours each. On the day of the experiment, the animal is transferred to a restraining cage, and an intravenous infusion of vehicle solution containing 150 mM glucose is started. The infusion rate is 0.5 ml/h throughout the experiment. After a short adaptation period, infusion of lipopolysaccharide (LPS) is started. LPS (E coli serotype 0127 B8, L 3129, Sigma, St. Louis, USA) is given at a dose of 4 mg/kg body weight delivered as an i.v. infusion over 1 hour. Arterial blood samples of 0.3 ml are taken 60, 90, and 120 minutes after start of the LPS infusion and replaced immediately with heparinized blood from a normal donor rat.
In addition to LPS infusion all rats are treated with a bolus injection of: • Vehicle (0.5 mL isotonic saline); • a-MSH in one of the following doses: 50 μg/kg bw; 200 μg/kg/bw or 1000 μg/kg bw; • Test compound in one of the following doses: 50 μg/kg bw; 200 μg/kg/bw or 1000 μg/kg bw.
Measurement of TNF-α in plasma: The blood samples are collected in a prechilled test tube with 0.5 mM EDTA, pH 7.4, and 20×10^6 IU/ml aprotinin. After centrifugation at 4° C., plasma samples are transferred to pre-chilled test tubes and stored at −20° C. for later measurements of TNF-α. TNF-α in plasma is determined by an ELISA (Biotrak, Amersham, UK).
Statistical analyses. Results are presented as means±SE. A two-way ANOVA for repeated measures is used to test for differences between groups. In case of P<0.05, the differences between corresponding periods are evaluated by unpaired t-tests with Bonferroni's correction of the level of significance.

[3] = 14 days after 60 minutes occlusion of LAD

Row | Substance | reduction in infarction size compared to Vehicle treated rats ([1]; 200 μg/kg body weight) | dose at which the maximal inhibitory effect on infarction size is achieved [1] | effect on myocardial infarction size (in contrast to / compared to a-MSH) [1] | myocardial infarction size, necrotic area as % of area of risk ([1]; 200 μg/kg body weight iv) | effect on LVEDP / post-infarctional congestive heart failure [1, 3] | reduction of TNF-a accumulation during iv infusion of LPS [2] | inhibitory effect on plasma TNF-a compared to native a-MSH [2] | TNF-a concentration in plasma, % of the maximal response (LPS-Vehicle) [2] | dose at which the maximal inhibitory effect on TNF-a is achieved [2] | other results
1 | Ac-Lys-Lys-Lys-Lys-Lys-Lys-Ser-Tyr-Ser-Met-Glu-His-Phe-Arg-Trp-Gly-Lys-Pro-Val-NH2 (Ac-KKKKKKSYSMEHFRWGKPV-NH2) [a-MSH analogue #1] | ~30% | 200 μg/kg body weight | reduces the myocardial infarction size | 35.7±5.6 % of area of risk | marked reduction in LVEDP | reduce TNF-a accumulation | markedly more pronounced | 9±1% | 200 μg/kg body weight | reduction in infarction size compared to Vehicle treated rats ([1]; 1000 μg/kg body weight): ~30%; myocardial infarction size, necrotic area as % of area of risk ([1]; 1000 μg/kg body weight iv): 35.0±4.4 % of area of risk; effect on myocardial infarction size (in contrast to / compared to a-MSH) ([1]; listed as SEQ ID NO: 1): reduced the infarction size to a higher degree; left ventricular end diastolic pressure (LVEDP) ([1]; 14 days after 60 minutes occlusion of LAD, 200 μg/kg bw): 10.4±2.9 mmHg; inhibitory effect on plasma TNF-a compared to native a-MSH ([2]; listed as SEQ ID NO: 1*): higher degree; reduction of TNF-a accumulation during iv infusion of LPS ([2]; listed as SEQ ID NO: 1*): significantly inhibit
2 | Ac-Lys-Lys-Lys-Lys-Lys-Lys-Ser-Tyr-Ser-Nle-Glu-His-(D-Phe)-Arg-Trp-Gly-Lys-Pro-Val-NH2 (KKKKKKSYSXEHFRWGKPV; N-acetyl, Nle, D-Phe, C-amide) [a-MSH analogue #2] | ~27% | 200 μg/kg body weight | reduces the myocardial infarction size | 37.4±5.1 % of area of risk | marked reduction in LVEDP | reduce TNF-a accumulation | markedly more pronounced | 9±1% | 200 μg/kg body weight | effect on myocardial infarction size (in contrast to / compared to a-MSH) ([1]; listed as SEQ ID NO: 5): reduced the infarction size to a higher degree; inhibitory effect on plasma TNF-a compared to native a-MSH ([2]; listed as SEQ ID NO: 5*): higher degree; reduction of TNF-a accumulation during iv infusion of LPS ([2]; listed as SEQ ID NO: 5*): significantly inhibit
3 | Ac-Lys-Lys-Lys-Lys-Lys-Lys-Ser-Tyr-Ser-Nle-Glu-His-D-Nal-Arg-Trp-Gly-Lys-Pro-Val-NH2 (KKKKKKSYSXEHXRWGKPV; not fully specified; N-acetyl, Nle, D-Nal, C-amide) [a-MSH analogue #3] | ~24% | 200 μg/kg body weight | reduces the myocardial infarction size | 39.0±3.4 % of area of risk | marked reduction in LVEDP | reduce TNF-a accumulation | markedly more pronounced | 11±3% | 200 μg/kg body weight | effect on myocardial infarction size (in contrast to / compared to a-MSH) ([1]; listed as SEQ ID NO: 9): reduced the infarction size to a higher degree; inhibitory effect on plasma TNF-a compared to native a-MSH ([2]; listed as SEQ ID NO: 9*): higher degree; reduction of TNF-a accumulation during iv infusion of LPS ([2]; listed as SEQ ID NO: 9*): significantly inhibit
4 | Ser-Tyr-Ser-Met-Glu-His-Phe-Arg-Trp-Gly-Lys-Pro-Val [a-MSH, reference compound] | – | – | – | – | – | reduce TNF-a accumulation; also recorded: reduce TNF-α accumulation | – | 17±3% and 17±30% | 200 μg/kg body weight | –
